Consider twelve compounds from patent US11285170B2, “Fractionated antimicrobial compositions and use thereof” (priority 2017, dated 2022).

Converted amounts (≈) assume the structure as drawn. Like-named read-outs stand apart in the source and are kept apart here.

Assay [1] concerns Vancomycin resistant S. aureus (VRSA). The assay can be described thus: MIC by broth macrodilution against S. aureus isolates. The format is cell-based. Particulars: Staphylococcus aureus. As for the experimental part:
In this example, the efficacy of the inventive preparations was tested against Vancomycin resistant S. aureus (VRSA)
The MICs were determined using a broth macrodilution method with cation-adjusted Mueller-Hinton broth II (Becton Dickinson) at standard inoculum (10^5 cfu/mL) following the CLSI recommendations. The cultures used in this study were bacterial clinical isolates from human infections.

In a further assay the test system is MSSA strain ATCC 29213. The assay can be described thus: MIC by broth macrodilution against S. aureus isolates, MSSA strain. The format is cell-based. Particulars: Staphylococcus aureus, read-out: MSSA strain MIC. From the text:
The cultures used in this study were bacterial clinical isolates from human infections.

For another assay, the system named is Ehrlich solid tumor. The assay can be described thus: Ehrlich solid tumor, combined effect with anticancer drugs. The format is in vivo. Particulars: combination study, 0.2 ml of 0.01% solution intraperitoneally. The procedure: In this experiment, a model of continuous Ehrlich solid tumor was used to study combined effect of claimed product with anticancer drugs. The drugs were administered simultaneously with the tumor transplantation (0.2 ml of 0.01% solution) intraperitoneally. The control animals received water (used as solvent for the drugs tested).

For assay [2], the system named is Pseudomonas aeruginosa AGR 18 and MR23 multiresistant. The assay can be described thus: MIC against multi-drug resistant P. aeruginosa. Format: cell-based. As for the experimental part: (§1) In this example, the efficacy of Examples 1, 10 and 13 were tested against multi-drug resistant microorganisms.
(§2) Bacterial strains tested: Pseudomonas aeruginosa AGR 18 and MR23 multiresistant. Fungal strain: Candida glabrata CG15, VT18 resistant to Amphotericin B and Voriconazole Microbiological efficacy was determined as the Minimal Inhibitory Concentration.
The bactericidal activities of Examples 1, 10 and 13 against multiresistant P. aeruginosa isolates are shown below in Table 17.

In assay [3] the test system is P. aeruginosa + A. fumigatus. The assay can be described thus: Animal model of mixed respiratory infection, mortality. Format: in vivo, C57BL/6 mice. Particulars: mice, intranasal infection; treatment 12 h after infection by intranasal inhalation at 32×MIC. The procedure: (§3) In this example the efficacy of the preparations were tested against an animal model of mixed respiratory infection.
(§4) The potency of Example Nos. 1, 5 and 10 were examined against bacterial isolates from patients with cystic fibrosis. The MICs values were determined by the broth macrodilution method according to the CLSI guideline. For the in vivo studies, 8-week-old C57BL/6 mice were intranasally infected with P. aeruginosa MR-6 (2×10^7 cfu/mouse)+A. fimigatus (6×10^6 cfu/mouse).

Assay [4] has as its system P. aeruginosa. The assay can be described thus: MIC by broth macrodilution, isolates from patients with cystic fibrosis, Example 22. Conditions: Pseudomonas aeruginosa, CLSI, read-out: MIC against P. aeruginosa. Format: cell-based. As for the experimental part: as §4
For assay [5], the system named is A. fumigatus. The assay can be described thus: MIC by broth macrodilution, Example 22. Format: cell-based, Aspergillus fumigatus. Particulars: CLSI. The procedure:
as §4

The subject of assay [6] is P. aeruginosa. Description: Animal model of respiratory infection, mortality. Format: in vivo, C57BL/6 mice. Conditions: mice, intranasal infection; treatment 12 h after infection by intranasal inhalation at 32×MIC. As for the experimental part: as §3, §4
The subject of assay [7] is A. fumigatus. Description: Animal model of respiratory infection, mortality. Particulars: mice, intranasal infection; treatment 12 h after infection by intranasal inhalation at 32×MIC. The format is in vivo, C57BL/6 mice. The procedure:
as §3, §4

In assay [8] the test system is Candida glabrata CG15, VT18. The assay can be described thus: MIC against multiresistant C. glabrata. Format: cell-based. As for the experimental part:
as §1, §2
The bactericidal activities of Examples 1, 10 and 13 against multiresistant C. glabrata isolates are shown below in Table 18.

Setting [9] is: VT-A-199, read-out: VRSA strain MIC.
[10] abbreviates: VT-V-18, read-out: VRSA strain MIC.
[11] abbreviates: VT-V-25, read-out: VRSA strain MIC.

`CN[C@H](CC(C)C)C(=O)N[C@H]1C(=O)N[C@@H](CC(N)=O)C(=O)N[C@H]2C(=O)N[C@H]3C(=O)N[C@H](C(=O)N[C@H](C(=O)O)c4cc(O)cc(O)c4-c4cc3ccc4O)[C@H](O)c3ccc(c(Cl)c3)Oc3cc2cc(c3O[C@@H]2O[C@H](CO)[C@@H](O)[C@H](O)[C@H]2O[C@H]2C[C@](C)(N)[C@H](O)[C@H](C)O2)Oc2ccc(cc2Cl)[C@H]1O` [Vancomycin]: the minimum inhibitory concentration (MIC) in assay [1] (read-out: VRSA strain MIC, VT-A-199) was determined as 16 mg/L (≈ 11 µM); in assay [1] (read-out: VRSA strain MIC, VT-V-18), 16 mg/L (≈ 11 µM); in [1] (read-out: VRSA strain MIC, VT-V-25), 1 mg/L (≈ 0.69 µM); in the assay with MSSA strain ATCC 29213 it was 0.5 mg/L (≈ 0.345 µM).

In the case of `CC1(C)S[C@@H]2[C@H](NC(=O)[C@H](N)c3ccccc3)C(=O)N2[C@H]1C(=O)O` [Ampicillin], the MIC in assay [1] (setting [9]) was found to be 16 mg/L (≈ 45.8 µM); in assay [1] (setting [10]), 64 mg/L (≈ 183 µM); in [1] (setting [11]), 32 mg/L (≈ 91.6 µM); with MSSA strain ATCC 29213 (ATCC 29213) it was 0.25 mg/L (≈ 0.715 µM).

Take `N.N.[Cl][Pt][Cl]` [Cisplatin]: the “Tumor size, 7 days after transplantation” value with Ehrlich solid tumor (7 days) came out at 72.4 mm^3. Also, the “Tumor size, 11 days after transplantation” value with Ehrlich solid tumor (11 days) came out at 180.7 mm^3. The “Tumor size, 14 days after transplantation” value in the assay with Ehrlich solid tumor (14 days) is 243.3 mm^3. For the same compound, the “Tumor size, 18 days after transplantation” value with Ehrlich solid tumor (18 days) turned out to be 345.8 mm^3. Besides, in the assay with Ehrlich solid tumor (22 days), the “Tumor size, 22 days after transplantation” value was found to be 548.2 mm^3. The “Tumor size, 25 days after transplantation” value in the assay with Ehrlich solid tumor (25 days) worked out at 607.7 mm^3.

Regarding `NCC[C@H](O)C(=O)N[C@@H]1C[C@H](N)[C@@H](O[C@H]2O[C@H](CN)[C@@H](O)[C@H](O)[C@H]2O)[C@H](O)[C@H]1O[C@H]1O[C@H](CO)[C@@H](O)[C@H](N)[C@H]1O` [Amikacin], the MIC in assay [2] (P. aeruginosa strain AGR 18) came out at 128 mg/L (≈ 219 µM); in [2] (P. aeruginosa strain MR23), 256 mg/L (≈ 437 µM).

`NC[C@H]1O[C@H](O[C@H]2[C@H](O)[C@@H](O[C@H]3O[C@H](CO)[C@@H](O)[C@H](N)[C@H]3O)[C@H](N)C[C@@H]2N)[C@H](N)C[C@@H]1O` [Tobramycin, tobramycin]: the “Percent mortality 96 h post infection, P. aeruginosa + A. fumigatus” value in [3] worked out at 50%. For the same compound, the minimal inhibitory concentration (MIC) in the assay with P. aeruginosa [4] is 16 to 32 mg/L (≈ 34.2 to 68.4 µM); in [2] (P. aeruginosa strain AGR 18), 32 mg/L (≈ 68.4 µM); in assay [2] (P. aeruginosa strain MR23) it was 32 mg/L (≈ 68.4 µM). Moreover, the “MIC against A. fumigatus” value with A. fumigatus [5] is reported as “not active”. Further, in the assay with P. aeruginosa [6], the “Percent mortality 96 h post infection, P. aeruginosa” value is on record as 20%. Moreover, the “Percent mortality 96 h post infection, A. fumigatus” value with A. fumigatus [7] was determined as 40%.

Turning to `CCC[C@@H]1C[C@@H](C(=O)N[C@@H]([C@H]2O[C@H](SC)[C@H](O)[C@@H](O)[C@H]2O)[C@H](C)Cl)N(C)C1` [Clindamycin], the minimal inhibitory concentration (MIC) in [1] (setting [9]) is 2 mg/L (≈ 4.71 µM); in assay [1] (setting [10]), 4 mg/L (≈ 9.41 µM); in assay [1] (setting [11]), 2 mg/L (≈ 4.71 µM); with MSSA strain ATCC 29213 (ATCC 29213) it was 0.125 mg/L (≈ 0.294 µM).

Turning to `C[C@@H]1[C@H](O)[C@@H](C)/C=C/C=C/C=C/C=C/C=C/C=C/C=C/[C@H](O[C@@H]2O[C@H](C)[C@@H](O)[C@H](N)[C@@H]2O)C[C@@H]2O[C@](O)(C[C@@H](O)C[C@@H](O)[C@H](O)CC[C@@H](O)C[C@@H](O)CC(=O)O[C@H]1C)C[C@H](O)[C@H]2C(=O)O` [AMB], the Minimal inhibitory concentration in assay [8] (C. glabrata CG1514053) is 4 mg/L (≈ 4.33 µM); in assay [8] (C. glabrata VT18), 8 mg/L (≈ 8.66 µM).

On to `CC(C)(O/N=C(\C(=O)N[C@@H]1C(=O)N2C(C(=O)[O-])=C(C[n+]3ccccc3)CS[C@H]12)c1csc(N)n1)C(=O)O` [Ceftazidime], for which the MIC in [2] (P. aeruginosa strain AGR 18) and in [2] (P. aeruginosa strain MR23) was 32 mg/L (≈ 58.5 µM) throughout.

For the compound `CCN1CCN(C(=O)N[C@@H](C(=O)N[C@@H]2C(=O)N3[C@@H]2SC(C)(C)[C@@H]3C(=O)O)c2ccccc2)C(=O)C1=O` [Piperacillin], the minimum inhibitory concentration (MIC) in assay [2] (P. aeruginosa strain AGR 18) is over 256 mg/L; in assay [2] (P. aeruginosa strain MR23) it was 256 mg/L (≈ 495 µM).

In the case of `C[C@@H](c1ncncc1F)[C@](O)(Cn1cncn1)c1ccc(F)cc1F` [VRZ], the Minimal inhibitory concentration in assay [8] (C. glabrata CG1514053) is 8 mg/L (≈ 22.9 µM); in assay [8] (C. glabrata VT18) it was 4 mg/L (≈ 11.5 µM).

With `C[C@H]1[C@H](NC(=O)/C(=N\OC(C)(C)C(=O)O)c2csc(N)n2)C(=O)N1S(=O)(=O)O` [Aztreonam, aztreonam], the “Percent mortality 96 h post infection, P. aeruginosa + A. fumigatus” value in assay [3] turned out to be 60%. For the same compound, the figures for the minimal inhibitory concentration (MIC) (in the assay on P. aeruginosa [4]; in assay [2] (P. aeruginosa strain AGR 18); in assay [2] (P. aeruginosa strain MR23)) were 64 mg/L (≈ 147 µM), 32 mg/L (≈ 73.5 µM) and 128 mg/L (≈ 294 µM), respectively. Besides, the “MIC against A. fumigatus” value in the assay on A. fumigatus [5] is “not active”. Moreover, in the assay on P. aeruginosa [6], the “Percent mortality 96 h post infection, P. aeruginosa” value came to 20%. The “Percent mortality 96 h post infection, A. fumigatus” value with A. fumigatus [7] stood at 30%.

On to `C[C@@H](O)[C@H]1C(=O)N2C(C(=O)O)=C(S[C@@H]3CN[C@H](C(=O)N(C)C)C3)[C@H](C)[C@H]12` [Meropenem], for which the MIC in [1] (setting [9]) was 128 mg/L (≈ 334 µM); in assay [1] (setting [10]), 32 mg/L (≈ 83.4 µM); in assay [1] (setting [11]), 128 mg/L (≈ 334 µM); with MSSA strain ATCC 29213 (ATCC 29213), 0.125 mg/L (≈ 0.326 µM).

A word on the MIC: it is the smallest concentration in the dilution series that meets the test's criterion for growth inhibition.
